Where a name gives a salt, the structure may show the parent alone.

For assay [1], the target named is T1, HCV polymerase (NS5B) type 1a (Hepatitis C virus genotype 1a, UniProt P26664).
T1 construct: made in house; host or cells: Escherichia coli (by the 'similar method' of the 1b enzyme)
The assay is described as follows: Assay of enzyme (HCV polymerase) inhibitory activity, type 1a enzyme. The format is biochemical, HCV type 1a (cloned from the blood of patients). The gist of the method: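 Reactions ran 60 min at 25° C in 20 mM Tris-HCl pH 7.5, 5 mM MgCl2, 50 mM NaCl, holding genotype 1a NS5B (1.5 μg/ml, Δ47 C-terminus, 6His), substrate RNA 5 μg/ml, UTP 2 μM with tritiated UTP and other NTPs 50 μM. IC50 derived from incorporated radiolabel in filter-trapped RNA relative to uninhibited reaction.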

Assay [2] has as its target T2, HCV polymerase (NS5B) type 1b (Hepatitis C virus genotype 1b, UniProt P26663).
T2 construct: a region encoding NS5B (J Virol 1991 March, 65(3), 1105-13, 544 amino acids after deletion of 47 amino acids on the C-terminal); 6xHis (C); made in house; host or cells: Escherichia coli
Nature of the assay: Assay of enzyme (HCV polymerase) inhibitory activity, type 1b enzyme. The format is biochemical, HCV BK strain (type 1b). The method, boiled down:
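IC50 derived from [3H]UTP incorporation into TCA-insoluble RNA, compared with and without test compound. Reaction (25 °C, 60 min, Tris pH 7.5, 5 mM MgCl2): E. coli-expressed 1b NS5B Δ47 with His tag at 0.5 μg/ml, 5 μg/ml run-off substrate RNA, ATP/GTP/CTP 50 μM, UTP 2 μM.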

The mark [3] stands for this setting: HCV polymerase inhibitory activity IC50, 1a, type 1a enzyme.
[4] abbreviates: HCV polymerase inhibitory activity IC50, 1b, type 1b enzyme.
[5] abbreviates: HCV polymerase inhibitory activity (IC50), 1a, type 1a enzyme 1.5 μg/ml, 25° C., 60 min.
Where [6] appears, read: HCV polymerase inhibitory activity (IC50), 1b, type 1b enzyme 0.5 μg/ml, 25° C., 60 min.

For the compound `O=C(NCc1ccc(OC(F)F)cc1)[C@H]1CN(c2nc3ncncc3s2)CCN1S(=O)(=O)c1ccc(OC(F)F)cc1` [Example 956, (R)-1-(4-difluoromethoxy-benzenesulfonyl)-4-thiazolo[4,5-d]pyrimidin-2-yl-piperazine-2-carboxylic acid 4-difluoromethoxy-benzylamide], the concentration for half-maximal inhibition (IC50) in assay [1] (setting [3]) and in assay [2] (setting [4]) was < 100 nM in each case.
Consider `CCCc1ccc(CNC(=O)[C@H]2CN(c3cc(C)c(C(=O)OC)nn3)CCN2S(=O)(=O)c2ccc(OC(F)(F)F)cc2)cc1` [Example 486, 4-methyl-6-[(R)-3-(4-propyl-benzylcarbamoyl)-4-(4-trifluoromethoxy-benzenesulfonyl)-piperazin-1-yl]-pyridazine-3-carboxylic acid methyl ester], for which the IC50 in assay [1] (setting [5]) and in assay [2] (setting [6]) was < 100 nM each time.
Consider `CCCc1ccc(CNC(=O)[C@H]2CN(c3nc4c(C(=O)OCC)n[nH]c(=O)c4s3)CCN2S(=O)(=O)c2ccc(CC)cc2)cc1` [Example 862, 2-[(R)-4-(4-ethyl-benzenesulfonyl)-3-(4-propyl-benzylcarbamoyl)-piperazin-1-yl]-7-oxo-6,7-dihydro-thiazolo[4,5-d]pyridazine-4-carboxylic acid ethyl ester], for which the concentration for half-maximal inhibition (IC50) in assay [1] (setting [3]) and in assay [2] (setting [4]) was < 100 nM each time.
For `CC(C)c1ccc(CNC(=O)[C@H]2CN(C(=O)NCCCC(=O)O)CCN2S(=O)(=O)c2ccc(C(F)(F)F)cc2)cc1` [Example 199, 4-{[(R)-3-(4-isopropyl-benzylcarbamoyl)-4-(4-trifluoromethyl-benzenesulfonyl)-piperazine-1-carbonyl]-amino}-butyric acid], the half-inhibitory concentration (IC50) (in general, the concentration at which inhibition is half-maximal) in assay [1] (setting [5]) was > 1000 nM; in assay [2] (setting [6]) it was 100 to 1000 nM.
In the case of `CCC(F)(F)c1ccc(CNC(=O)[C@H]2CN(c3nc4ncncc4s3)CCN2S(=O)(=O)c2ccc(OC(F)(F)F)cc2)cc1` [Example 894, (R)-4-thiazolo[4,5-d]pyrimidin-2-yl-1-(4-trifluoromethoxy-benzenesulfonyl)-piperazine-2-carboxylic acid 4-(1,1-difluoro-propyl)-benzylamide], the concentration for half-maximal inhibition (IC50) in assay [1] (setting [3]) and in assay [2] (setting [4]) was < 100 nM in each case.
In the case of `CCC(F)(F)c1ccc(CNC(=O)[C@H]2CN(C(=O)N3CC(C(=O)O)C3)CCN2S(=O)(=O)c2ccc(OC(F)(F)F)cc2)cc1` [Example 705, 1-[(R)-3-[4-(1,1-difluoro-propyl)-benzylcarbamoyl]-4-(4-trifluoromethoxy-benzenesulfonyl)-piperazine-1-carbonyl]-azetidine-3-carboxylic acid], the IC50 in assay [1] (setting [3]) and in assay [2] (setting [4]) was > 1000 nM each time.
Turning to `CCC(F)(F)c1ccc(CNC(=O)[C@H]2CN(C(=O)Nc3ccnc(C(=O)NC4CC4)c3)CCN2S(=O)(=O)c2ccc(OC(F)(F)F)cc2)cc1` [Example 512, (R)-4-(4-trifluoromethoxy-benzenesulfonyl)-piperazine-1,3-dicarboxylic acid 1-[(2-cyclopropylcarbamoyl-pyridin-4-yl)-amide] 3-[4-(1,1-difluoro-propyl)-benzylamide]], the 50% inhibitory concentration (IC50) in assay [1] (setting [5]) and in assay [2] (setting [6]) was < 100 nM in each case.
Take `O=C(NCc1ccc(OC(F)(F)F)cc1)[C@H]1CN(c2nc3nc(F)ncc3s2)CCN1S(=O)(=O)c1ccc(OC(F)(F)F)cc1` [Example 972, (R)-4-(5-fluoro-thiazolo[4,5-d]pyrimidin-2-yl)-1-(4-trifluoromethoxy-benzenesulfonyl)-piperazine-2-carboxylic acid 4-trifluoromethoxy-benzylamide]: the IC50 in assay [1] (setting [3]) and in assay [2] (setting [4]) was < 100 nM throughout.
Take `CC(C)c1ccc(S(=O)(=O)N2CCN(C3=NCCS3)CC2C(=O)NCc2ccc(C(F)(F)F)cc2)cc1` (centres unmarked) [Example 112, 4-(4,5-dihydro-thiazol-2-yl)-1-(4-isopropyl-benzenesulfonyl)-piperazine-2-carboxylic acid 4-trifluoromethyl-benzylamide]: the concentration for half-maximal inhibition (IC50) in assay [1] (setting [5]) and in assay [2] (setting [6]) was > 1000 nM throughout.
With `CC(=O)N1CCN(S(=O)(=O)c2ccc(Oc3cccnc3)cc2)C(C(=O)NCc2ccc(C(F)(F)F)cc2)C1` (centres unmarked) [Example 66, 4-acetyl-1-[4-(pyridin-3-yloxy)-benzenesulfonyl]-piperazine-2-carboxylic acid 4-trifluoromethyl-benzylamide hydrochloride], the IC50 in assay [1] (setting [5]) and in assay [2] (setting [6]) was > 1000 nM in each case.
As for `COC(=O)c1ccc(S(=O)(=O)N2CCN(C(C)=O)CC2C(=O)NCc2ccc(C(F)(F)F)cc2)cc1` (centres unmarked) [Example 106, 4-[4-acetyl-2-(4-trifluoromethyl-benzylcarbamoyl)-piperazine-1-sulfonyl]-benzoic acid methyl ester], the half-maximal inhibitory concentration (IC50) in assay [1] (setting [5]) and in assay [2] (setting [6]) was > 1000 nM each time.
Turning to `Cc1nc(N2CCN(S(=O)(=O)c3ccc(C(C)C)cc3)[C@@H](C(=O)NCc3ccc(C(C)C)cc3)C2)sc1C(=O)O` [Example 344, 2-[(R)-4-(4-isopropyl-benzenesulfonyl)-3-(4-isopropyl-benzylcarbamoyl)-piperazin-1-yl]-4-methyl-thiazole-5-carboxylic acid], the IC50 in assay [1] (setting [5]) and in assay [2] (setting [6]) was < 100 nM throughout.
For `CC(=O)N1CCN(S(=O)(=O)c2ccccc2)C(C(=O)NCc2ccc(C(F)(F)F)cc2)C1` (centres unmarked) [Example 24, 4-acetyl-1-benzenesulfonyl-piperazine-2-carboxylic acid 4-trifluoromethyl-benzylamide], the concentration for half-maximal inhibition (IC50) in assay [1] (setting [5]) and in assay [2] (setting [6]) was > 1000 nM throughout.
Take `CCCc1ccc(CNC(=O)[C@H]2CN(c3cc(Cl)ncn3)CCN2S(=O)(=O)c2ccc(OC(F)(F)F)cc2)cc1` [Example 571, (R)-4-(6-chloro-pyrimidin-4-yl)-1-(4-trifluoromethoxy-benzenesulfonyl)-piperazine-2-carboxylic acid 4-propyl-benzylamide]: the half-maximal inhibitory concentration (IC50) in assay [1] (setting [5]) and in assay [2] (setting [6]) was < 100 nM in each case.
As to `CC(C)c1ccc(CNC(=O)[C@H]2CN(C(=O)C(N)=O)CCN2S(=O)(=O)c2ccc(C(F)(F)F)cc2)cc1` [Example 308, (R)-4-aminooxalyl-1-(4-trifluoromethyl-benzenesulfonyl)-piperazine-2-carboxylic acid 4-isopropyl-benzylamide], the IC50 in assay [1] (setting [5]) and in assay [2] (setting [6]) was > 1000 nM in each case.
Consider `CCC(F)(F)c1ccc(CNC(=O)[C@H]2CN(c3cnc4cncnc4n3)CCN2S(=O)(=O)c2ccc(Br)s2)cc1` [Example 737, (R)-1-(5-bromo-thiophene-2-sulfonyl)-4-pteridin-7-yl-piperazine-2-carboxylic acid 4-(1,1-difluoro-propyl)-benzylamide], for which the concentration for half-maximal inhibition (IC50) in assay [1] (setting [3]) and in assay [2] (setting [4]) was < 100 nM in each case.
On to `CCCc1ccc(CNC(=O)[C@H]2CN(c3cnc4cnccc4n3)CCN2S(=O)(=O)c2ccc(-c3cccc(O)c3)cc2)cc1` [Example 778, (R)-1-(3′-hydroxy-biphenyl-4-sulfonyl)-4-pyrido[3,4-b]pyrazin-2-yl-piperazine-2-carboxylic acid 4-propyl-benzylamide], for which the concentration for half-maximal inhibition (IC50) in assay [1] (setting [3]) and in assay [2] (setting [4]) was < 100 nM each time.
As for `O=C(NCc1c(F)c(F)c(C(F)(F)F)c(F)c1F)[C@H]1CN(c2cnc3cncnc3n2)CCN1S(=O)(=O)c1ccc(OC(F)(F)F)cc1` [Example 795, (R)-4-pteridin-7-yl-1-(4-trifluoromethoxy-benzenesulfonyl)-piperazine-2-carboxylic acid 2,3,5,6-tetrafluoro-4-trifluoromethyl-benzylamide], the IC50 in assay [1] (setting [3]) and in assay [2] (setting [4]) was < 100 nM throughout.
For `CCC(F)(F)c1ccc(CNC(=O)[C@H]2CN(c3cnc4cc(Cl)ccc4n3)CCN2S(=O)(=O)c2ccc(OC(F)(F)F)cc2)cc1` [Example 688, (R)-4-(6-chloro-quinoxalin-2-yl)-1-(4-trifluoromethoxy-benzenesulfonyl)-piperazine-2-carboxylic acid 4-(1,1-difluoro-propyl)-benzylamide], the half-inhibitory concentration (IC50) in assay [1] (setting [3]) and in assay [2] (setting [4]) was 100 to 1000 nM each time.
For the compound `O=C(NCc1ccc(OC(F)F)cc1)[C@H]1CN(c2nn3c(C(F)(F)F)cc(=O)nc3s2)CCN1S(=O)(=O)c1ccc(C(F)(F)F)cc1` [Example 1068, (R)-4-(7-oxo-5-trifluoromethyl-7H-[1,3,4]thiadiazolo[3,2-a]pyrimidin-2-yl)-1-(4-trifluoromethyl-benzenesulfonyl)-piperazine-2-carboxylic acid 4-difluoromethoxy-benzylamide], the IC50 in assay [1] (setting [3]) and in assay [2] (setting [4]) was < 100 nM each time.
On to `CCC(F)(F)c1ccc(CNC(=O)[C@H]2CN(C(=O)Nc3nn[nH]n3)CCN2S(=O)(=O)c2ccc(OC(F)(F)F)cc2)cc1` [Example 566, (R)-4-(4-trifluoromethoxy-benzenesulfonyl)-piperazine-1,3-dicarboxylic acid 3-[4-(1,1-difluoro-propyl)-benzylamide] 1-[(2H-tetrazol-5-yl)-amide]], for which the half-maximal inhibitory concentration (IC50) in assay [1] (setting [5]) was 100 to 1000 nM; in assay [2] (setting [6]) it was < 100 nM.
For `COCc1ccc(CNC(=O)[C@H]2CN(c3nc(C)c(C(=O)O)s3)CCN2S(=O)(=O)c2ccc(OC(F)(F)F)cc2)cc1` [Example 451, 2-[(R)-3-(4-methoxymethyl-benzylcarbamoyl)-4-(4-trifluoromethoxy-benzenesulfonyl)-piperazin-1-yl]-4-methyl-thiazole-5-carboxylic acid] the same measures were < 100 nM and < 100 nM.

The values are drawn from patent publication US8017612B2, “Piperazine compound and use thereof as a HCV polymerase inhibitor” (priority 2006, dated 2011).
